Structures can show the parent of a compound that is named as a salt.
Tested on: influx of neutrophils to the lung in LPS-challenged rats
Assay: Rat LPS neutrophilia model
Assay type: in vivo
Settings: intratracheal, LPS aerosol 100 ug/ml 15 min, lavage 4 hours later, in at least one of the range of conditions tested, significant p<0.05, nonsignificant p>0.05
Method: The effect of compounds on the influx of neutrophils to the lung in LPS-challenged rats is evaluated as follows. The test compound is suspended in one of the following solutions: 0.5% tween 80/PBS, 0.5% tween 80/saline, 10% EtOH/saline (with pH adjusted to 2.0, or 8.0 with HCl, or unadjusted), Saline @ pH 2.0, 6.5 or 8.0, 0.5% Tragacanth, 1% DMSO/20% Encapsin/Saline, or acidified 5% Tragacanth. The suspension process may be aided by the use of a glass homogenizer. For intratracheal administration, the animals are anesthetized with inhaled isoflurane and placed in a supine position, the trachea is intubated with a steel gavage needle (1.5 inch, 22 gauge, small ball) or a Penn-Century Microsprayer Aerosolizer (model IA-IB) and 200 ul of dosing solution is delivered. The animals are visually monitored during the recovery process, which typically occurs within two minutes. It is noted that the test compounds may be alternatively administered via the microsprayer in a dry powder blend with a suitable excipient, such as lactose.
Rats treated with compound or vehicle (15 min-24 hours pretreatment) are exposed to an LPS aerosol (100 ug/ml) for 15 min. Four hours later the rats are euthanized with pentobarbital (100 mg/kg, i.p.) and the airways are lavaged with 5 washes of 5 ml of phosphate buffered saline. The harvested cells are stained (Diffquick) and counted to determine total and differential cell data. […] Inhibition of neutrophil levels relative to no compound controls is calculated based on the differential counts.
The data is obtained as % inhibition using a particular concentration and pretreat time.

SMILES | inhibition of neutrophilia (neutrophil levels in lung lavage relative to no compound controls)
Cc1ccc(NC(=O)c2cccc3cc[nH]c23)cc1-c1nc(NC(CO)CO)nc2c1ccc(=O)n2-c1c(F)cccc1F [Example 44, N-[3-(8-(2,6-difluorophenyl)-2-{[2-hydroxy-1-(hydroxymethyl)ethyl]amino}-7-oxo-7,8-dihydropyrido[2,3-d]pyrimidin-4-yl)-4-methylphenyl]-1H-indole-7-carboxamide trifluoroacetate] | statistically significant inhibition
CNCCNc1nc(-c2cc(C(=O)Nc3nccs3)ccc2C)c2ccc(=O)n(-c3c(F)cccc3F)c2n1 [Example 61, 3-(8-(2,6-difluorophenyl)-2-{[2-(methylamino)ethyl]amino}-7-oxo-7,8-dihydropyrido[2,3-d]pyrimidin-4-yl)-4-methyl-N-1,3-thiazol-2-ylbenzamide] | statistically significant inhibition
CCN(CC)CCCNc1nc(-c2cc(C(=O)N[C@H](C)C(C)C)ccc2C)c2ccc(=O)n(-c3c(F)cccc3F)c2n1 [Example 130] | statistically nonsignificant inhibition
CCN(CC)CCCNc1nc(-c2cc(C(=O)NCC3CCCC3)ccc2C)c2ccc(=O)n(-c3c(F)cccc3F)c2n1 [Example 132, N-(cyclopentylmethyl)-3-[2-{[3-(diethylamino)propyl]amino}-8-(2,6-difluorophenyl)-7-oxo-7,8-dihydropyrido[2,3-d]pyrimidin-4-yl]-4-methylbenzamidetrifluoroacetate] | statistically nonsignificant inhibition
Cc1ccc(C(=O)NC2CC2)cc1-c1nc(N2CCC(N)CC2)nc2c1ccc(=O)n2-c1c(F)cccc1F [Example 22, 3-[2-(4-amino-1-piperidinyl)-8-(2,6-difluorophenyl)-7-oxo-7,8-dihydropyrido[2,3-d]pyrimidin-4-yl]-N-cyclopropyl-4-methylbenzamide] | statistically significant inhibition
Cc1ccc(C(=O)NC2CC2)cc1-c1nc(NCc2ncc[nH]2)nc2c1ccc(=O)n2-c1c(F)cccc1F [Example 23, N-cyclopropyl-3-{8-(2,6-difluorophenyl)-2-[(1H-imidazol-2-ylmethyl)amino]-7-oxo-7,8-dihydropyrido[2,3-d]pyrimidin-4-yl}-4-methylbenzamide] | statistically nonsignificant inhibition
CCN(CC)CCCNc1nc(-c2cc(C(=O)N[C@@H](C)c3ccccc3)ccc2C)c2ccc(=O)n(-c3c(F)cccc3F)c2n1 [Example 149, 3-[2-{[3-(diethylamino)propyl]amino}-8-(2,6-difluorophenyl)-7-oxo-7,8-dihydropyrido[2,3-d]pyrimidin-4-yl]-4-methyl-N-[(1S)-1-phenylethyl]benzamide] | inactive
Cc1ccc(C(=O)NCCc2ccccc2)cc1-c1nc(NC2CC(C)(C)NC(C)(C)C2)nc2c1ccc(=O)n2-c1c(F)cccc1F [Example 28, 3-{8-(2,6-difluorophenyl)-7-oxo-2-[(2,2,6,6-tetramethyl-4-piperidinyl)amino]-7,8-dihydropyrido[2,3-d]pyrimidin-4-yl}-4-methyl-N-(2-phenylethyl)benzamide] | statistically nonsignificant inhibition
CNCCNc1nc(-c2cc(C(=O)NCC3CC3)ccc2C)c2ccc(=O)n(-c3c(F)cccc3F)c2n1 [Example 4] | statistically significant inhibition
CCN(CC)CCCNc1nc(-c2cc(C(=O)Nc3ccc(F)cc3)ccc2C)c2ccc(=O)n(-c3c(F)cccc3F)c2n1 [Example 160, 3-[2-{[3-(diethylamino)propyl]amino}-8-(2,6-difluorophenyl)-7-oxo-7,8-dihydropyrido[2,3-d]pyrimidin-4-yl]-N-(4-fluorophenyl)-4-methylbenzamide] | statistically significant inhibition
Cc1ccc(C(=O)NCc2ccccc2)cc1-c1nc(NCc2ncc[nH]2)nc2c1ccc(=O)n2-c1c(F)cccc1F [Example 77, 3-{8-(2,6-difluorophenyl)-2-[(1H-imidazol-2-ylmethyl)amino]-7-oxo-7,8-dihydropyrido[2,3-d]pyrimidin-4-yl}-4-methyl-N-(phenylmethyl)benzamide] | statistically significant inhibition
Cc1ccc(C(=O)Nc2nccs2)cc1-c1nc(N(C)CCCN(C)C)nc2c1ccc(=O)n2-c1c(F)cccc1F [Example 107, 3-{8-(2,6-difluorophenyl)-2-[[3-(dimethylamino)propyl](methyl)amino]-7-oxo-7,8-dihydropyrido[2,3-d]pyrimidin-4-yl}-4-methyl-N-1,3-thiazol-2-ylbenzamide] | statistically significant inhibition
CCNC(=O)c1ccc(C)c(-c2nc(N3CCC(N4CCC(C)CC4)CC3)nc3c2ccc(=O)n3-c2c(F)cccc2F)c1 [Example 173, 3-[8-(2,6-difluorophenyl)-2-(4-methyl-1,4′-bipiperidin-1′-yl)-7-oxo-7,8-dihydropyrido[2,3-d]pyrimidin-4-yl]-N-ethyl-4-methylbenzamide] | statistically significant inhibition
CCN(CC)CCCNc1nc(-c2cc(C(=O)NC)ccc2C)c2ccc(=O)n(-c3c(F)cccc3F)c2n1 [Example 119, 3-[2-{[3-(diethylamino)propyl]amino}-8-(2,6-difluorophenyl)-7-oxo-7,8-dihydropyrido[2,3-d]pyrimidin-4-yl]-N,4-dimethylbenzamide] | statistically significant inhibition
Cc1ccc(C(=O)NCC2CC2)cc1-c1nc(N2CCC(N)CC2)nc2c1ccc(=O)n2-c1c(F)cccc1F [Example 27, 3-[2-(4-amino-1-piperidinyl)-8-(2,6-difluorophenyl)-7-oxo-7,8-dihydropyrido[2,3-d]pyrimidin-4-yl]-N-(cyclopropylmethyl)-4-methylbenzamide] | statistically significant inhibition
Cc1ccc(C(=O)NCC(C)C)cc1-c1nc(N2CCC(N3CCC(C)CC3)CC2)nc2c1ccc(=O)n2-c1c(F)cccc1F [Example 168, 3-[8-(2,6-difluorophenyl)-2-(4-methyl-1,4′-bipiperidin-1′-yl)-7-oxo-7,8-dihydropyrido[2,3-d]pyrimidin-4-yl]-4-methyl-N-(2-methylpropyl)benzamide] | inactive
CCCNC(=O)c1ccc(C)c(-c2nc(N3CCC(N)CC3)nc3c2ccc(=O)n3-c2c(F)cccc2F)c1 [Example 69, 3-[2-(4-amino-1-piperidinyl)-8-(2,6-difluorophenyl)-7-oxo-7,8-dihydropyrido[2,3-d]pyrimidin-4-yl]-4-methyl-N-propylbenzamide] | statistically significant inhibition
CCN(CC)CCCNc1nc(-c2cc(C(=O)NCCF)ccc2C)c2ccc(=O)n(-c3c(F)cccc3F)c2n1 [Example 133, 3-[2-{[3-(diethylamino)propyl]amino}-8-(2,6-difluorophenyl)-7-oxo-7,8-dihydropyrido[2,3-d]pyrimidin-4-yl]-N-(2-fluoroethyl)-4-methylbenzamidetrifluoroacetate] | statistically significant inhibition
CNCCNc1nc(-c2cc(C(=O)NC3CCCC3)ccc2C)c2ccc(=O)n(-c3c(F)cccc3F)c2n1 [Example 58, N-cyclopentyl-3-(8-(2,6-difluorophenyl)-2-{[2-(methylamino)ethyl]amino}-7-oxo-7,8-dihydropyrido[2,3-d]pyrimidin-4-yl)-4-methylbenzamide] | statistically significant inhibition
Cc1ccc(C(=O)NCc2ccccc2)cc1-c1nc(N2CCC(N)CC2)nc2c1ccc(=O)n2-c1c(F)cccc1F [Example 71, 3-[2-(4-amino-1-piperidinyl)-8-(2,6-difluorophenyl)-7-oxo-7,8-dihydropyrido[2,3-d]pyrimidin-4-yl]-4-methyl-N-(phenylmethyl)benzamide] | statistically nonsignificant inhibition
CNCCNc1nc(-c2cc(C(=O)NCc3ccccc3)ccc2C)c2ccc(=O)n(-c3c(F)cccc3F)c2n1 [Example 59, 3-(8-(2,6-difluorophenyl)-2-{[2-(methylamino)ethyl]amino}-7-oxo-7,8-dihydropyrido[2,3-d]pyrimidin-4-yl)-4-methyl-N-(phenylmethyl)benzamide] | statistically significant inhibition
